Patent US20240277743A1, “RESTORING PHYSIOLOGY WITH SMALL MOLECULE MIMICS OF MISSING PROTEINS” (The Board of Trustees Of The University Of Illinois, priority 2014, published 2024)

Key:
[1] = system: small molecule-rescued trk1Δtrk2Δ cells versus wild type; experiment: Probing sensitivities to known chemical inhibitors assay; assay type: cell-based, Saccharomyces cerevisiae; conditions: for sensitivity of AmB-rescued trk1Δtrk2Δ cells versus AmB-treated wild type to the inhibitor: AmB rescue, OD600 after 24 hours, FIGS. 3B-3D; for optimum rescue concentration for trk1Δtrk2Δ cells: FIG. 3E legend
Procedure: Probing sensitivities to known chemical inhibitors assay. Overnight cultures were grown as described in the MIC assay. Prior to harvesting cells, small molecules AmB, nystatin A1 (Riedel-de-Haen), candicidin (TOKU-E), or mepartricin (Santa Cruz Biotechnology) and chemical inhibitors nocodazole (Sigma-Aldrich), ebselen (Cayman Chemical), or bafilomycin BI (Santa Cruz Biotechnology were prepared as stock solutions in DMSO. Saturated cell cultures were centrifuged for 5 minutes at 1000×g. The supernatant was poured off, and cells were resuspended in sterile MilliQ water. Cells were centrifuged again, and supernatant was poured off. The wash step was repeated. The supernatant was poured off, and cells were resuspended in normal potassium YPAD. Cells were diluted with normal potassium YPAD to an OD600 of 0.01. Next, an appropriate volume of AmB, nystatin A1, candicidin, or mepartricin was added to give a final rescuing concentration of 125 nM, 1000 nM, 8 nM, and 8 nM, respectively. A control was prepared by adding the corresponding volume of DMSO to trk1Δtrk2Δ cells. 195 μL of WT+small molecule, 195 μL of trk1Δtrk2Δ+small molecule, and 195 μL of trk1Δtrk2Δ+DMSO were added to a 96 well plate. Next, 5 μL of DMSO or chemical inhibitor was added to each well, with each concentration tested in triplicate for both WT and trk1Δtrk2Δ . The plate was covered and incubated at 30° C. for 24 hours. A BioTek Synergy H1 Hybrid Reader was used to measure the OD600. Utilizing GraphPad PRISM, data were fitted by nonlinear regression, inhibition dose response, variable slope (four parameters) to yield EC50 values with SEM. For statistical analysis, EC50 values from the two treatment groups were compared by unpaired t-test.

[2] = system: CuFi-1 epithelial monolayers (CFTR-deficient human lung epithelia); experiment: Airway surface liquid (ASL) height studies by confocal fluorescence microscopy; assay type: cell-based
Procedure: Human cell lines and growth conditions. NuLi and CuFi-1 cells were cultured at the air-liquid interface as previously described, using a 1:1 mixture of DMEM: Ham's F-12 supplemented with 2% v/v Ultroser G (Crescent Chemical). Zabner, J. et al. Am. J. Physiol. Lung Cell. Mol. Physiol. 284, […]-[…] (2003). The membrane supports used were Millicell 0.4 μm PCF inserts (Millipore PIHP01250) for Ussing chamber studies, Corning Costar 0.4 μm Transwell Clear Polyester Membrane inserts (Corning 3470) for rotational mucus transport studies, and Millicell 1.0 μm PCF inserts (Millipore PIRP15R48) for ASL studies. These membranes were allowed to mature at an air-liquid interface for a minimum of 14 days to reach full differentiation. Airway surface liquid (ASL) height studies. ASL height was studied using an established fluorescent dye assay. Worthington, E. N. et al. Methods Mol. Biol. 742, 77-92 (2011); Myerburg. M. M. et al. Am. J. Respir. Cell. Mol. Biol. 42, 676-684 (2010). Mature, differentiated membranes were grown on Millicell […] polyethylene terephthalate hanging cell culture inserts. Wild type (NuLi) lung epithelia were treated with perfluorocarbon (FC-72) vehicle, and CuFi epithelia were treated with vehicle or 500 nM AmB and incubated for 24 hours at 37° ° C. On the day of imaging. 2.5 μL of a 70 kDa Texas Red-dextran conjugate (Molecular Probes) solution in PBS was added to the apical side of the membranes, followed by 100 μL of FC-770 to prevent evaporation. These were placed on 100 μL of PBS on a 10 mm glass bottom Fluorodish for imaging (World Precision Instruments). Membranes were imaged immediately after dye addition and again at 24 hours to examine dye absorption. Three Z-stack images per membrane in biological n=6 were taken on an Zeiss LSM700 confocal microscope at 40× oil immersion. These images were analyzed using ImageJ to determine the area of fluorescence in the left hand 200-micron width of each image. Images were converted to 8-bit, Gaussian Blur was applied, and made binary. The parameters for Analyze Particles were particles from 1-Infinity μm^2 in size and from 0%-100% circularity.

trk1Δtrk2Δ yeast = experiment: Functional complementation of a protein with a small molecule assay (rescue broth microdilution); assay type: cell-based, Saccharomyces cerevisiae; conditions: for restoration of trk1Δtrk2Δ cell growth by ion transporting natural products: FIG. 3A
From the text: Broth microdilution minimum inhibitory concentration (MIC) assay. The protocol for the MIC broth microdilution assay was adapted from the Clinical and Laboratory Standards Institute document M27-A2 and performed as previously described. Gray, K. C. et. al. Proc. Natl. Acad. Sci. U.S.A. 109, 2234-2239 (2012); Palacios, D. S. et al. J. Am. Chem. Soc. 129, 13804-13805 (2007).
Functional complementation of a protein with a small molecule assay. The protocol for the rescue broth microdilution assay was conducted as described in the MIC assay above with the following additions: trk1atrk2Δ yeast were grown in high potassium (100 mM) YPAD liquid media overnight and transferred to normal potassium YPAD liquid media containing vehicle or the indicated concentration of AmB.

[3] = system: AmB ion channel in trk1Δtrk2Δ cells; conditions: FIG. 2E
Procedure: Tetraethylammonium block assay. The protocol for the tetraethylammonium block assay was conducted as described in the functional complementation assay above with the addition of 125 nM AmB and the indicated concentration of tetraethylammonium to the normal potassium YPAD media and the indicated concentration of tetraethylammonium to the high potassium (100 mM) YPAD media.

yeast = conditions: cited from earlier work
trk1Δtrk2Δ cells = experiment: 86Rb+ uptake assay; assay type: cell-based, Saccharomyces cerevisiae; conditions: 3 μM; FIG. 2F
Procedure: ^86Rb^+ uptake assay. The procedure for 86Rb uptake was adapted from Mulet, J. M. et al. Mol. Cell. Biol. 19, 3328-3337 (1999). Overnight yeast cultures were grown as described above. The supernatant was poured off, and the cells were resuspended in sterile water. This wash was repeated two more times. The cells were then resuspended in 40 mL of the potassium starvation/uptake buffer (50 mM succinic acid, 2% glucose, adjusted to pH 5.5 with Tris). After 3 hour incubation in the potassium starvation buffer, cells were centrifuged and washed twice with sterile water. Cells were resuspended in 1 mL of the potassium starvation/uptake buffer. Cell concentration was determined using an INCYTO®; Neubauer disposable hemocytometer, and wild type S. cerevisiae and trk1Δtrk2Δ cells were diluted to the same cell density. 700 μL of the yeast suspension was added to a 1.5 mL Eppendorf tube. After a 5 minute pre-incubation in the potassium starvation/uptake medium, AmB or C35deOAmB was added (final concentration 3 μM) as a DMSO solution. ^86RbCl (1.1 μCi) was then added to the reaction mixtures. Reaction mixtures were vortexed to ensure a homogeneous solution. […] Moist filters were transferred to plastic vials for measuring radioactivity. Radioactivity was monitored using a Perkin Elmer Wizard automatic gamma counter. […]

Compound: CO/C1=C\C(C)=C\[C@@H](C)[C@@H](O)[C@@H](C)C/C(C)=C/C=C/[C@H](OC)[C@@H]([C@@H](C)[C@@H](O)[C@H](C)[C@@]2(O)C[C@@H](O)[C@H](C)[C@@H](C(C)C)O2)OC1=O [bafilomycin]
- sensitivity of AmB-rescued trk1Δtrk2Δ cells versus AmB-treated wild type to the inhibitor [1]: exceptionally sensitive

Compound: CCCCNc1cc(C(=O)O)cc(S(N)(=O)=O)c1Oc1ccccc1 [bumetanide]
- effect on AmB-mediated ASL restoration ([2]; basolateral addition, inhibits NKCC, FIG. 5D): blocked

Compound: COC(=O)Nc1nc2ccc(C(=O)c3cccs3)cc2[nH]1 [nocodazole]
- sensitivity of AmB-rescued trk1Δtrk2Δ cells versus AmB-treated wild type to the inhibitor [1]: equally sensitive

Compound: C[C@@H]1[C@H](O)[C@@H](C)/C=C/C=C/CC/C=C/C=C/C=C/C=C/C(O[C@H]2O[C@H](C)[C@@H](O)[C@H](N)[C@@H]2O)CC2O[C@](O)(CC(O)C(O)CCC(O)CC(O)CC(O)CC(=O)O[C@H]1C)CC(O)C2C(=O)O (stereo partly drawn) [nystatin]
- restoration of trk1Δtrk2Δ cell growth by ion transporting natural products (trk1Δtrk2Δ yeast): Vigorous restoration
- optimum rescue concentration for trk1Δtrk2Δ cells [1]: 1 µM

Compound: CC[N+](CC)(CC)CC [tetraethylammonium]
- effect on functional complementation observed with AmB ([3]; 125 nM AmB, normal potassium (10 mM KCl), dose-dependent): inhibited the functional complementation
- general toxicity to trk1Δtrk2Δ cells ([3]; permissive conditions (100 mM KCl)): without causing general toxicity

Compound: C35-deoxy amphotericin B [C35deOAmB]
- restoration of growth in trk1Δtrk2Δ cells (trk1Δtrk2Δ yeast; any tested concentration, FIG. 2D): failed to restore growth
- ASL height of CuFi-1 epithelia, compound added apically ([2]; 500 nM AmB, 24 hours, FIGS. 5A, 5B): no increase in ASL height
- fungicidal activity (yeast): potent fungicidal activity
- 86Rb+ uptake in trk1Δtrk2Δ cells (trk1Δtrk2Δ cells): no uptake

Compound: candicidin
- restoration of trk1Δtrk2Δ cell growth by ion transporting natural products (trk1Δtrk2Δ yeast): Vigorous restoration
- optimum rescue concentration for trk1Δtrk2Δ cells [1]: 0.008 µM

Compound: mepartricin
- restoration of trk1Δtrk2Δ cell growth by ion transporting natural products (trk1Δtrk2Δ yeast): Vigorous restoration
- optimum rescue concentration for trk1Δtrk2Δ cells [1]: 0.008 µM
